In the supplement of paper PMC10307832:

Legend:
Test in all cases: relative viability (nuclei count vs DMSO), 5 days (fraction); higher = more cells survive
Vorinostat + Luminespib = compound: O=C(CCCCCCC(=O)Nc1ccccc1)NO [Vorinostat] + CCNC(=O)c1noc(-c2cc(C(C)C)c(O)cc2O)c1-c1ccc(CN2CCOCC2)cc1 [Luminespib] (partner 0.01 µM)
In short: (§1)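 Cells from lung cancer lines were seeded into 1536-well plates and, one day later, dosed by pin tool. Treatments were either a single drug or a fixed dose of an anchor drug with five library-drug doses (not always all listed) in √10 steps. After 5 days, nuclei were stained in a one-step fixation (final 0.05% Triton X-100, 1% formaldehyde, 1 ug/ml Hoechst) and counted on 4× images, and relative viability is the treated-to-vehicle nuclei ratio, as the median of duplicate plates.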

Vorinostat + OSI-027 = compound: O=C(CCCCCCC(=O)Nc1ccccc1)NO [Vorinostat] + COc1cccc2cc(-c3nc([C@H]4CC[C@H](C(=O)O)CC4)n4ncnc(N)c34)[nH]c12 [OSI-027] (partner 0.5 µM)
In short: as §1

Vorinostat + Pictilisib = compound: O=C(CCCCCCC(=O)Nc1ccccc1)NO [Vorinostat] + CS(=O)(=O)N1CCN(Cc2cc3nc(-c4cccc5[nH]ncc45)nc(N4CCOCC4)c3s2)CC1 [Pictilisib] (partner 1 µM)
In short: as §1

Vorinostat + Phenformin = compound: O=C(CCCCCCC(=O)Nc1ccccc1)NO [Vorinostat] + N=C(N)NC(=N)NCCc1ccccc1 [Phenformin] (partner 250 µM)
In short: as §1

Vorinostat + Olaparib = compound: O=C(CCCCCCC(=O)Nc1ccccc1)NO [Vorinostat] + O=C(c1cc(Cc2n[nH]c(=O)c3ccccc23)ccc1F)N1CCN(C(=O)C2CC2)CC1 [Olaparib] (partner 8 µM)
In short: as §1

Cell Line | relative viability (Vorinostat + Luminespib; first compound 0.253 µM) | relative viability (Vorinostat + Luminespib; first compound 0.8 µM) | relative viability (Vorinostat + Luminespib; first compound 2.53 µM) | relative viability (Vorinostat + Luminespib; first compound 8 µM) | relative viability (Vorinostat + OSI-027; first compound 0.253 µM) | relative viability (Vorinostat + OSI-027; first compound 0.8 µM) | relative viability (Vorinostat + OSI-027; first compound 2.53 µM) | relative viability (Vorinostat + OSI-027; first compound 8 µM) | relative viability (Vorinostat + Pictilisib; first compound 0.253 µM) | relative viability (Vorinostat + Pictilisib; first compound 0.8 µM) | relative viability (Vorinostat + Pictilisib; first compound 2.53 µM) | relative viability (Vorinostat + Pictilisib; first compound 8 µM) | relative viability (Vorinostat + Phenformin; first compound 0.253 µM) | relative viability (Vorinostat + Phenformin; first compound 0.8 µM) | relative viability (Vorinostat + Phenformin; first compound 2.53 µM) | relative viability (Vorinostat + Phenformin; first compound 8 µM) | relative viability (Vorinostat + Olaparib; first compound 0.253 µM) | relative viability (Vorinostat + Olaparib; first compound 0.8 µM) | relative viability (Vorinostat + Olaparib; first compound 2.53 µM) | relative viability (Vorinostat + Olaparib; first compound 8 µM)
H3255 | 0.743 | 0.808 | 0.602 | 0.315 | 0.669 | 0.694 | 0.478 | 0.289 | 0.599 | 0.574 | 0.318 | 0.183 | 0.33 | 0.302 | 0.323 | 0.262 | 0.588 | 0.52 | 0.326 | 0.222
NCI-H838 | 0.287 | 0.207 | 0.199 | 0.118 | 0.531 | 0.508 | 0.298 | 0.137 | 0.798 | 0.675 | 0.349 | 0.142 | 0.95 | 0.562 | 0.317 | 0.139 | 0.87 | 0.785 | 0.222 | 0.153
EMC-BAC-2 | 1.13 | 1.13 | 0.484 | 0.182 | 0.356 | 0.316 | 0.173 | 0.146 | 0.596 | 0.531 | 0.372 | 0.129 | 0.523 | 0.473 | 0.248 | 0.163 | 0.448 | 0.382 | 0.216 | 0.139
NCI-H1793 | 0.206 | 0.187 | 0.159 | 0.146 | 0.328 | 0.32 | 0.302 | 0.151 | 0.479 | 0.355 | 0.286 | 0.174 | 0.467 | 0.415 | 0.516 | 0.279 | 1.16 | 0.937 | 0.358 | 0.111
NCI-H441 | 0.485 | 0.423 | 0.194 | 0.162 | 0.705 | 0.576 | 0.229 | 0.194 | 0.517 | 0.448 | 0.164 | 0.11 | 1.1 | 0.863 | 0.317 | 0.169 | 0.56 | 0.542 | 0.17 | 0.0865
NCI-H3122 | 0.0783 | 0.0802 | 0.0456 | 0.0728 | 1.26 | 1.1 | 0.135 | 0.129 | 0.667 | 0.758 | 0.284 | 0.177 | 0.395 | 0.365 | 0.0662 | 0.118 | 0.543 | 0.574 | 0.319 | 0.0668
NCI-H1651 | 0.831 | 0.799 | 0.429 | 0.116 | 1 | 0.607 | 0.195 | 0.0644 | 0.659 | 0.433 | 0.0763 | 0.0536 | 0.408 | 0.326 | 0.0932 | 0.0635 | 0.187 | 0.17 | 0.098 | 0.0473
NCI-H1734 | 0.24 | 0.185 | 0.165 | 0.0945 | 0.803 | 0.672 | 0.362 | 0.137 | 0.512 | 0.49 | 0.299 | 0.13 | 0.501 | 0.388 | 0.297 | 0.0963 | 0.739 | 0.66 | 0.31 | 0.0928
